Data taken from patent publication US20260217691A1, “FOXM1 INHIBITORS AND THEIR USE IN TREATING CANCERS” (THE BOARD OF TRUSTEES OF THE UNIVERSITY OF ILLINOIS, priority 2022, published 2026).
“Also recorded” adds a separate entry of the source.

What was measured:
FOXM1 [1] = biological target: T1, FOXM1 (Homo sapiens, UniProt Q08050); assay: FOXM1 protein levels by immunoblotting in solid cancer cell lines
T1 sequence (Q08050 1-763): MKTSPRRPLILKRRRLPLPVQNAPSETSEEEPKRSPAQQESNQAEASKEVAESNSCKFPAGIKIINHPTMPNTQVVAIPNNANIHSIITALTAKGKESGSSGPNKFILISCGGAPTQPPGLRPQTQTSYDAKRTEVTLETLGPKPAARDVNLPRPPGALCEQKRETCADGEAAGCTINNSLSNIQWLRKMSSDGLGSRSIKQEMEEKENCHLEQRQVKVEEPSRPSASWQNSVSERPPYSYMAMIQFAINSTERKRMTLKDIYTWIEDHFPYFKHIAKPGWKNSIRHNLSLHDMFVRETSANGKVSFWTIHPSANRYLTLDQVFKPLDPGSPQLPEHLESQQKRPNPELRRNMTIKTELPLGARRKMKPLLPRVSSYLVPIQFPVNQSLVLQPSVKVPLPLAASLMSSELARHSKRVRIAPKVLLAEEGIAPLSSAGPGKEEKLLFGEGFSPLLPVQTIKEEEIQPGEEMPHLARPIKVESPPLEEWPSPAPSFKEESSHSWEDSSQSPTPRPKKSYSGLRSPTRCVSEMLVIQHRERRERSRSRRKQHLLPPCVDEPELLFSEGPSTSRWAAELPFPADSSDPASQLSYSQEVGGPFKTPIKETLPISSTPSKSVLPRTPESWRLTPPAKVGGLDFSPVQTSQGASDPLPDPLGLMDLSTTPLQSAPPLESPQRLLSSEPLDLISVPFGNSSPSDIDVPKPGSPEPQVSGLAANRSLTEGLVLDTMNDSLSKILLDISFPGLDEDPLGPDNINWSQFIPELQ
Experimental: Cell culture: Human cell lines LNCaP and 22Rv1 (human prostate carcinoma), OVCAR8 and ES-2 (High-grade serous ovarian cancer, HGSOC), HCT-116 and HCT-FET (human colorectal carcinoma), HCC-1143 (triple negative breast cancer (TNBC), TAMR (Tamoxifen resistant MCF7) human breast cancer, were provided from various investigators. LNCaP and 22Rv1 cell lines were cultured in RPMI-1640 with 2 mM L-Glutamine (Gibco; Thermo Fisher Scientific, Waltham, MA, USA). HCC-1143 cell lines were cultured in Iscove's Modified Dulbecco Medium (IMDM) with 2 mM L-Glutamine (Gibco; Thermo Fisher Scientific). OVCAR-8, ES-2, HCT-116, and HCT-FET cell lines were cultured in Dulbecco's Modified Eagle Medium (DMEM) with 4.5 g/L glucose and 4 mM L-Glutamine (Gibco; Thermo Fisher Scientific). For all cell lines, the growth media was supplemented with 10% Foetal Bovine Serum (FBS), penicillin (100 U/mL), and 100 μg/mL streptomycin (Gibco; Thermo Fisher Scientific). TAMR cells were routinely cultured in DMEM/F12 medium without phenol red (Gibco; Thermo Fisher Scientific), containing 1% charcoal-striped FBS, 2.5 mM L-Glutamine (Thermo Fisher Scientific), 6 ng/mL insulin (Millipore Sigma) and 50 nM 4-hydroxytamoxifen (4-OHT; Millipore Sigma). All cell lines were grown and maintained at 37° C. in a humidified incubator with 5% CO2. Sub-confluent cultures (70-80%) were split 1:5 using 0.25% Trypsin/EDTA (Millipore Sigma).
Drug treatment of cultured cells: After harvesting, cells were counted in presence of Trypan Blue (Thermo Fisher Scientific) and seeded onto tissue culture plates to achieve ~50% confluency. The next day, treatment of cells was performed by aspirating the nonadherent cells and growth medium and replacing it with the fresh one containing selected concentrations of drugs. For Tamoxifen based studies, the nonadherent cells and growth media was aspirated and replaced with the DMEM supplemented with 4.5 g/L glucose and 4 mM L-Glutamine, 10% FBS, penicillin (100 U/mL), 100 μg/mL streptomycin, 10 nM estrogen, and selected concentrations of drugs. […] Post-treatment at selected times, the cells were harvested, washed with ice-cold PBS and used for protein or RNA purification as described below.
Protein immunoblotting: Total protein was extracted using ice-cold radio-immunoprecipitation assay (RIPA) buffer (Millipore Sigma) supplemented with Halt protease- and phosphatise-inhibitor cocktails (Fisher Scientific), 2 mM sodium orthovanadate (New England Biolabs, Inc., USA), and 5 mM sodium fluoride (Millipore Sigma) according to the manufacturer's protocol. Protein content in each sample was estimated using Bio-Rad Protein Assay (Bio-Rad, USA). Equal amounts of protein (20-30 μg) were separated on hand-cast SDS/PAGE (6-12%) mini-protein gels and transferred to 0.2 μm Immobilon-Psq polyvinylidene difluoride (PVDF) transfer membrane (Millipore Sigma). Membranes were blocked with 4% bovine serum albumin (BSA; Millipore Sigma) in TRIS-buffered saline (TBS) with 0.1% Tween-20 (TBS-T, Thermo Fisher Scientific) and probed overnight at 4° C. with the primary antibodies (FOXM1, Cell Signaling Technology (CST), Inc., USA; Cleaved Caspase-3, CST; β-actin, Thermo Fisher Scientific) diluted according to the manufacturer's protocol. […] After incubating membranes with the secondary antibodies, the membranes were then washed three times for 10 min each with TBST. Protein bands were developed using SuperSignal™ West Pico PLUS Chemiluminescent Substrate (Thermo Fisher Scientific) and detected using ChemiDoc Imaging System (Bio-Rad).

FOXM1 [2] = biological target: T1, FOXM1; assay: FOXM1 protein levels by immunoblotting in leukemia/AML cell lines; format: cell-based; parameters: Total protein samples obtain from treated cells were analyzed for FOXM1 protein levels via immunoblotting; endogenous in cells; host or cells: KG-1, HL-60, K562, THP-1 leukemia cell lines; conditions: for FOXM1 level / effect on FOXM1 protein levels suppressed by STL001: KG-1 cells; for effect on FOXM1 protein levels suppressed by STL001: co-treatment with STL001, 24 h
Experimental: [a] Leukemia cells, KG-1, HL-60 and K562 were treated with increasing concentrations of STL427944 for 24 hrs. […] [b] THP1 and KG-1 cells were treated with indicated concentrations of venetoclax and STL427944 alone or in combination for 24 hrs. [c] KG-1 and K562 cells were treated with indicated concentrations of cytarabine and STL427944 alone or in combination for 24 hrs.
FIG. 8. STL427944 treatment of human leukemia cell lines suppress FOXM1 protein expression. (a) STL427944 treatment of human leukemia cell lines inhibit FOXM1 protein expression and sensitize cells to venetoclax treatment. […] (b) Stable shRNA-mediated FOXM1 knockdown prominently sensitizes KG-1 cells to cytotoxic effect of venetoclax. (c, d) combined treatment with STL427944 and venetoclax suppresses FOXM1 in KG-1 and THP-1 cells and synergistically promotes cytotoxic effects similarly to FOXM1 knockdown. Total protein was isolated from cells immediately after the treatment and analyzed via immunoblotting with FOXM1 antibodies). Apoptosis induction was estimated based on caspase-3 cleavage.
FIGS. 9A and 9B: Novel FOXM1 inhibitor STL001 sensitizes Leukemia cells to chemotherapy agents. [a] Structural formula of novel FOXM1 inhibitor STL001. [b] Leukemia cells, KG-1, HL-60, and K562 were treated with increasing concentrations of STL001 for 24 hrs. […] [c] KG-1 cells were treated with indicated concentrations of Laptomycin B, Chloroquine, and STL001 for 24 hrs. […] [d] KG-1, HL-60, and K562 cells were treated with indicated concentrations of venetoclax and STL001 alone or in combination for 24 hrs. [e] KG-1, HL-60, and K562 cells were treated with indicated concentrations of cytarabine and STL alone or in combination for 24 hrs.
FIGS. 13A-13H STL001 is a novel FOXM1 inhibitor that sensitizes leukemia cells to standard cytotoxic and bcl2 inhibitor therapies. FIG. 13A AML cell line KG-1 treated with precursor compound STL427944. FIG. 3B AML cell lines KG-1, HL-60, and K562 were treated with increasing concentrations of STL001 for 24 h. Total protein samples obtained from treated cells were analyzed for FOXM1 protein levels using immunoblotting; β-actin was used as the internal loading control. FIG. 13C KG-1, HL-60, and K562 cells were treated with indicated concentrations of venetoclax and STL001 alone or in combination for 24 h. FIG. 13D KG-1, HL-60, and K562 cells were treated with indicated concentrations of cytarabine and STL001 alone or in combination for 24 h. […] FIG. 13E KG-1 cells were treated with indicated concentrations of Leptomycin B, Chloroquine, and STL001 for 24 h. Total protein samples obtained from treated cells were analyzed for FOXM1 protein levels via immunoblotting; β-actin was used as an internal loading control. FIG. 13F KG-1 cell lines with shRNA knockdown of FOXM1 were treated with venetoclax and STL001 and compared to parental cells. FIG. 13G Real-time PCR-based expression profiling for canonical FOXM1 target genes was performed on primary AML mononuclear cells (n=5) treated ex vivo with STL001 5 μM for 24 h. Mean and standard error of the delta Ct for DMSO or treatment group are plotted for each gene. P-value is estimated by two-tailed paired t-test. Asterisks denote P<0.05. FIG. 13H Treatment of peripheral blood mononuclear cells with STL001 for 24 h followed by immunohistochemistry for FOXM1. Slides were scanned on an Aperio AT2 brightfield scanner and images were analyzed using HALO 2.0 software. Hematoxylin counterstain was used to segment nuclei within the ROIs and to establish an accurate cell count. Percent cells with nuclear FOXM1 expression compared between DMSO and STL001 treated cells. P-value is based on one-tailed paired t-test.

FOXM1 [3] = biological target: T1, FOXM1; parameters: Total protein samples obtain from treated cells were analyzed for FOXM1 protein levels via immunoblotting; endogenous in cells; conditions: solid cancer cell lines; cited from earlier work
[4] = system: KG-1, HL-60, K562, THP-1 cells; format: cell-based
FOXM1 [5] = biological target: T1, FOXM1; parameters: Total protein samples obtain from treated cells were analyzed for FOXM1 protein levels via immunoblotting; endogenous in cells; host or cells: KG-1, HL-60, K562, THP-1 leukemia cell lines; conditions: cited from earlier work
HCC-1143 cells = system: HCC-1143 cells
Experimental: (§1) FIG. 17. […] (A) Prostate cancer (22RV1 and LNCaP) cells were treated with indicated concentrations of paclitaxel alone or in combination with STL001 for 24 hrs. (B) Tamoxifen resistance MCF-7 breast cancer cells (TAM-R) were treated with indicated concentrations of Tamoxifen alone or in combination with STL001 for 24 hrs. In all cases, total protein samples were obtained from cells immediately after treatment and analyzed for FOXM1, cleaved caspase-3 levels via immunoblotting, β-actin was used as internal loading control (n=3). (C) Percent (%) dead cells in TAM-R cells treated with indicated concentrations of Tamoxifen alone or in combination with STL001 for 24 hrs. […] (F) HCC 143 cells with stable shRNA-mediated FOXM1 knockdown (KD) were treated with doxorubicin alone or in combination with STL001 for 24 hrs and compared to parental cells under the same treatment conditions. In all cases, total protein samples were obtained from cells immediately after treatment and analyzed for FOXM1, cleaved caspase-3 levels via immunoblotting, β-actin was used as internal loading control (n=3).
Stable FOXM1-expression knockdown in cancer cell: Cells were seeded on commercially available 12-well tissue culture plates to achieve ~40% confluency. […] Transduced cells were selected by their cultivation with puromycin (1.0 μg/mL) for 10 days and then maintained without puromycin as described above.

22RV1, LNCaP cells = system: 22RV1, LNCaP cells
Experimental: as §1

[6] = system: HCT-116 and HCT-FET cells; assay: Chemosensitization (caspase-3 cleavage) of colorectal cancer cells to 5′FU; format: cell-based, human
Experimental: FIG. 16. […] (A) Ovarian cancer (OVCAR-8 and ES-2) cells were treated with indicated concentrations of Doxorubicin (Doxo) alone or in combination with STL001 for 24 hrs. […] (C) colon cancer (HCT-116 and FET) cells were treated with indicated concentrations of 5′FU alone or in combination with STL001 for 24 hrs.

NPM1c mutant AML cells = conditions: cited from earlier work
TAMR cells = format: cell-based
Experimental: as §1

In the case of O=C(Oc1cccc(/C=N/Nc2nc(Nc3ccccc3)nc(N3CCOCC3)n2)c1)c1ccco1 [STL427944], the “efficacy in knocking down FOXM1 expression” value (FOXM1 [1]; ovarian cancer cells (ES-2, OVCAR-8)) is reported as “lesser efficacy as compared to STL001”, the “concentration showing modest FOXM1 inhibition” value (FOXM1 [2]; AML cell line KG-1) is reported as 25 µM and the “Potency in AML” value (FOXM1 [2]; estimated) is reported as “uM range”. The FOXM1 protein levels (FOXM1 [2]; leukemia cell lines, increasing concentrations, 24 h) was “dose-dependent suppression of FOXM1 protein levels; also recorded: efficiently reduces FOXM1 protein levels”, the “concentrations showing modest FOXM1 suppression” value (FOXM1 [3]) was 25 to 50 µM and the “apoptosis (caspase-3 cleavage) in combination with venetoclax” value ([4]; KG-1/THP-1 cells) was “synergetic induction of apoptosis”. The “efficiency of sensitization to venetoclax treatment” value ([4]; KG-1 cells, versus shRNA FOXM1 knockdown) was “comparable to effects caused by shRNA-mediated FOXM1 knockdown”, the “effect on cytotoxicity of chemotherapeutic drugs (venetoclax, cytarabine)” value ([4]; THP1, KG-1, K562 cells, 24 hrs) was “enhances the cytotoxic effect of conventional chemotherapeutic drugs” and the “sensitivity of treated human cancer cells to platinum-based agents, 5-fluorouracil, taxanes” value (FOXM1 [5]; human cancer cells) was “increased sensitivity to cytotoxic effects of conventional chemotherapeutic treatments”. The “effect on FOXM1” value (FOXM1 [5]; relocalization of nuclear FOXM1 to cytoplasm, degradation by autophagosomes) was “selectively suppresses FOXM1”.

For CC(C)C[C@H](NC(=O)[C@H](Cc1ccccc1)NC(=O)c1cnccn1)B(O)O [bortezomib], the FOXM1 level (FOXM1 [2]) was “down-regulation of FOXM1” and the “apoptosis (caspase-3 cleavage) in combination with cytarabine” value ([4]; KG-1 cells) was “synergistic induction of apoptosis”.

With C=C(NC(=O)C(=C)NC(=O)c1csc(C2=N[C@@H]3c4csc(n4)[C@H]4NC(=O)c5csc(n5)[C@H]([C@](C)(O)[C@@H](C)O)NC(=O)[C@H]5CSC(=N5)/C(=C/C)NC(=O)[C@H]([C@@H](C)O)NC(=O)c5csc(n5)[C@]3(CC2)NC(=O)[C@H](C)NC(=O)C(=C)NC(=O)[C@H](C)NC(=O)[C@H]([C@@H](C)CC)N[C@@H]2C=Cc3c([C@H](C)O)cc(nc3[C@H]2O)C(=O)O[C@@H]4C)n1)C(N)=O [thiostrepton] the FOXM1 level (FOXM1 [2]) was “down-regulation of FOXM1” and the “apoptosis (caspase-3 cleavage) in combination with cytarabine” value ([4]; KG-1 cells) was “synergistic induction of apoptosis”.

For COc1cccc2c1C(=O)c1c(O)c3c(c(O)c1C2=O)C[C@@](O)(C(=O)CO)C[C@@H]3O[C@H]1C[C@H](N)[C@H](O)[C@H](C)O1 [doxorubicin], the “cellular FOXM1 protein, DNA-damaging agent alone” value (FOXM1 [1]; HCC-1143, sub-lethal concentrations) was “significantly higher levels of cellular FOXM1 protein”, the “FOXM1 protein abundance, chemotherapeutic alone” value (FOXM1 [1]; OVCAR-8, ES-2, sub-lethal concentrations) was “significant increase in FOXM1 protein abundance” and the “cytotoxic effects, DNA-damaging agent alone” value (HCC-1143 cells) was “without showing prominent cytotoxic effects”.

With CC(=O)O[C@H]1C(=O)[C@@]2(C)[C@H]([C@H](OC(=O)c3ccccc3)[C@]3(O)C[C@H](OC(=O)[C@H](O)[C@@H](NC(=O)c4ccccc4)c4ccccc4)C(C)=C1C3(C)C)[C@]1(OC(C)=O)CO[C@@H]1C[C@@H]2O [paclitaxel] the “cellular FOXM1 protein levels, chemotherapeutic alone” value (FOXM1 [1]; 22RV1, LNCaP, sublethal concentrations) was “prominent increase in cellular FOXM1 protein levels” and the “cytotoxic effects, chemotherapeutic alone” value (22RV1, LNCaP cells) was “without showing any cytotoxic effects”.

In the case of O=c1[nH]cc(F)c(=O)[nH]1 [5′FU, 5-fluorouracil], the “cell death, chemotherapeutic alone” value [6] is reported as “without evident cell death” and the “FOXM1 level, chemotherapeutic alone” value (FOXM1 [1]; HCT-116 and HCT-FET) is reported as “FOXM1 upregulation”.

For CC(C)N(C(=O)c1cc(F)ccc1Oc1cncnc1N1CC2(CCN(CC3CCC(NS(C)(=O)=O)CC3)CC2)C1)C(C)C (stereo not drawn) [VTP-50469], the “leukemia development in the knock-in murine model” value (NPM1c mutant AML cells; knock-in murine model) is given as “prevent leukemia development” and the “effect on NPM1c mutant AML cells in xenografts” value (NPM1c mutant AML cells; oral inhibitor, xenografts) is given as “able to eradicate NPM1c mutant AML cells in xenografts”.

In the case of CCN(CC)CCCC(C)Nc1ccnc2cc(Cl)ccc12 (stereo not drawn) [Chloroquine], the “effect on FOXM1 protein levels suppressed by STL001” value (FOXM1 [2]) is reported as “rescued FOXM1 protein levels”.

For CCC(=C/[C@H](C)C/C=C/C(C)=C/[C@@H](C)C(=O)[C@@H](C)[C@H](O)[C@@H](C)C/C(C)=C/C(=O)O)/C=C/[C@@H]1OC(=O)C=C[C@@H]1C [Leptomycin B], the “effect on FOXM1 protein levels suppressed by STL001” value (FOXM1 [2]) was “rescued FOXM1 protein levels”.

In the case of CC/C(=C(\c1ccccc1)c1ccc(OCCN(C)C)cc1)c1ccccc1 [tamoxifen], the “FOXM1 level, tamoxifen alone” value (FOXM1 [1]; TAMR cells) is reported as “FOXM1 upregulation” and the “cell death, tamoxifen alone” value (TAMR cells) is reported as “without prominent cell death induction”.
